Starred links: 1 amine or outer side, 2 acyl side, 3 side chain; linkers in the order of their positions; H or OH if unused. Positions of bridges follow the written chain, without caps; N, C: chain ends. Residues, ends and D or L forms follow the SMILES beside them. *: point of attachment. C20 diacid = O=C(O)CCCCCCCCCCCCCCCCCCC(=O)*; C18 diacid = O=C(O)CCCCCCCCCCCCCCCCC(=O)*; γGlu = O=C(O)[C@H](CCC(=O)[*:2])N[*:1]; AEEA = NCCOCCOCC(=O)O
target: T1, human natriuretic peptide receptor 2 (hNPR2) (Homo sapiens, UniProt P20594); test: In vitro hNPR2 activity assay (cGMP GloSensor reporter, HEK293); assay type: cell-based; details: potency relative to CNP22 (0065)
T1 construct: expressed in transfected cells; host or cells: HEK293 (ATCC CRL-1573), clone 35, co-transfected with pGloSensor-42F
T1 sequence (P20594 23-1047): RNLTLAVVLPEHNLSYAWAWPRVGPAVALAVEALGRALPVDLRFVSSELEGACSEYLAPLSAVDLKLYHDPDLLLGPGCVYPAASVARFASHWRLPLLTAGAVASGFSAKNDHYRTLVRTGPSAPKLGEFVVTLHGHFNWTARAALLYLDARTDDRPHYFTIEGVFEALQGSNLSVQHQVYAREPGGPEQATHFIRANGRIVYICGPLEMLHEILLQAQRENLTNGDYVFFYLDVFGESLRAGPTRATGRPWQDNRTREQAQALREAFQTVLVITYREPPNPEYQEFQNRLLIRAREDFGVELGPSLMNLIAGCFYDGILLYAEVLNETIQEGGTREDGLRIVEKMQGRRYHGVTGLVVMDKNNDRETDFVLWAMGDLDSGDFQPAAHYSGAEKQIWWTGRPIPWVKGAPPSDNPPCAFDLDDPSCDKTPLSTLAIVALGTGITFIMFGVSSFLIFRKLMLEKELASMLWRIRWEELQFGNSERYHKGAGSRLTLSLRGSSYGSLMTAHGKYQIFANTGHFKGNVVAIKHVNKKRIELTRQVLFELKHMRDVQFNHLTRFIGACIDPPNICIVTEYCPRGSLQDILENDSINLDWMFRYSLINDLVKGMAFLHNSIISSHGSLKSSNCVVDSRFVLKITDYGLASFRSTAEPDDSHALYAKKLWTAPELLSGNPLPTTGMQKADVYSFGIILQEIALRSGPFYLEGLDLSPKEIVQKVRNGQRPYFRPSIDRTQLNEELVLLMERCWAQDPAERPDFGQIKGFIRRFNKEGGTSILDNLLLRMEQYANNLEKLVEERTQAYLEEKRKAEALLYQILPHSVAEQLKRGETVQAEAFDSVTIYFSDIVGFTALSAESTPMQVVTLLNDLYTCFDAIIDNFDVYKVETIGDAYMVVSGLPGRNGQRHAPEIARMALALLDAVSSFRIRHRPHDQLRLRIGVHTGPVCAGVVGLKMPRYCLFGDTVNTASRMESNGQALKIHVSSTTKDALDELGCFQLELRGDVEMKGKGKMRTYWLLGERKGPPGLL
Procedure, shortened: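 Potency is the EC50 from a four-parameter logistic fit, also expressed relative to the in-plate CNP22 control (×100), with at least two replicates. Compounds (ten concentrations, […], HSA-free diluent with 1% OVA, 0.01% Tween20) were incubated 30 min at 37 °C on HEK293 cells co-expressing hNPR2 and a GloSensor cGMP luciferase. Luminescence detected with Bright-Glo.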

| SMILES | hNPR2 0% HSA. [EC50% rel CNP] |
| --- | --- |
| CC[C@H](C)[C@@H]1NC(=O)[C@H](CCCNC(=N)N)NC(=O)[C@H](CC(=O)O)NC(=O)[C@H](CC(C)C)NC(=O)[C@@H]2CCCN2C(=O)[C@H](CC(C)C)NC(=O)CNC(=O)[C@H](Cc2ccccc2)NC(=O)[C@@H](NC(=O)CNC(=O)[C@H](CCC(N)=O)NC(=O)[C@H](CO)NC(=O)[C@H](CC(C)C)NC(=O)CNC(=O)[C@H](CCCCN)NC(=O)[C@H](CCCCN)NC(=O)[C@H](CCC(N)=O)NC(=O)[C@H](C)NC(=O)CNC(=O)[C@H](CCC(=O)O)NC(=O)[C@H](Cc2ccc(O)cc2)NC(=O)COCCOCCNC(=O)COCCOCCNC(=O)COCCOCCNC(=O)COCCOCCNC(=O)CC[C@H](NC(=O)CCCCCCCCCCCCCCCCC(=O)O)C(=O)O)CSSC[C@@H](C(=O)O)NC(=O)CNC(=O)[C@H](CC(C)C)NC(=O)CNC(=O)[C@H](CO)NC(=O)[C@H](CC(C)C)NC(=O)[C@H](CO)NC(=O)CNC1=O [compound 1393] ({C18 diacid-γGlu-AEEA-AEEA-AEEA-AEEA}-YEGAQKKGLSQGCFGLPLDRIGSLSGLGC-OH; disulfide 13-29) | 27.8% |
| CC[C@H](C)[C@@H]1NC(=O)[C@H](CCCNC(=N)N)NC(=O)[C@H](CC(=O)O)NC(=O)[C@H](CC(C)C)NC(=O)[C@@H]2CCCN2C(=O)[C@H](CC(C)C)NC(=O)CNC(=O)[C@H](Cc2ccccc2)NC(=O)[C@@H](NC(=O)CNC(=O)[C@H](CCC(N)=O)NC(=O)[C@H](CO)NC(=O)[C@H](CC(C)C)NC(=O)CNC(=O)[C@H](CCCCN)NC(=O)[C@H](CCCCN)NC(=O)[C@H](CCC(N)=O)NC(=O)[C@H](C)NC(=O)CNC(=O)[C@H](CCC(=O)O)NC(=O)[C@H](Cc2ccc(O)cc2)NC(=O)[C@H](CCCCN)NC(=O)[C@H](CCCNC(=N)N)NC(=O)[C@H](C)NC(=O)[C@H](CCC(N)=O)NC(=O)[C@@H]2CCCN2C(=O)[C@H](Cc2c[nH]cn2)NC(=O)[C@H](CCC(=O)O)NC(=O)[C@H](CCC(N)=O)NC(=O)COCCOCCNC(=O)COCCOCCNC(=O)CC[C@H](NC(=O)CCCCCCCCCCCCCCCCC(=O)O)C(=O)O)CSSC[C@@H](C(=O)O)NC(=O)CNC(=O)[C@H](CC(C)C)NC(=O)CNC(=O)[C@H](CO)NC(=O)[C@H](CC(C)C)NC(=O)[C@H](CO)NC(=O)CNC1=O [compound 1394] ({C18 diacid-γGlu-AEEA-AEEA}-QEHPQARKYEGAQKKGLSQGCFGLPLDRIGSLSGLGC-OH; disulfide 21-37) | 93.9% |
| CC[C@H](C)[C@@H]1NC(=O)[C@H](CCCNC(=N)N)NC(=O)[C@H](CC(=O)O)NC(=O)[C@H](CC(C)C)NC(=O)[C@@H]2CCCN2C(=O)[C@H](CC(C)C)NC(=O)CNC(=O)[C@H](Cc2ccccc2)NC(=O)[C@@H](NC(=O)CNC(=O)[C@H](CCC(N)=O)NC(=O)[C@H](CO)NC(=O)[C@H](CC(C)C)NC(=O)CNC(=O)[C@H](CCCCN)NC(=O)[C@H](CCCCN)NC(=O)[C@H](CCC(N)=O)NC(=O)[C@H](C)NC(=O)CNC(=O)[C@H](CCC(=O)O)NC(=O)[C@H](Cc2ccc(O)cc2)NC(=O)[C@H](CCCCN)NC(=O)[C@H](C)NC(=O)[C@H](C)NC(=O)[C@H](CCC(N)=O)NC(=O)[C@@H]2CCCN2C(=O)[C@H](Cc2c[nH]cn2)NC(=O)[C@H](CCC(=O)O)NC(=O)[C@H](CCC(N)=O)NC(=O)COCCOCCNC(=O)COCCOCCNC(=O)CC[C@H](NC(=O)CCCCCCCCCCCCCCCCC(=O)O)C(=O)O)CSSC[C@@H](C(=O)O)NC(=O)CNC(=O)[C@H](CC(C)C)NC(=O)CNC(=O)[C@H](CO)NC(=O)[C@H](CC(C)C)NC(=O)[C@H](CO)NC(=O)CNC1=O [compound 1395] ({C18 diacid-γGlu-AEEA-AEEA}-QEHPQAAKYEGAQKKGLSQGCFGLPLDRIGSLSGLGC-OH; disulfide 21-37) | 60.2% |
| CC[C@H](C)[C@@H]1NC(=O)[C@H](CCCNC(=N)N)NC(=O)[C@H](CC(=O)O)NC(=O)[C@H](CC(C)C)NC(=O)[C@@H]2CCCN2C(=O)[C@H](CC(C)C)NC(=O)CNC(=O)[C@H](Cc2ccccc2)NC(=O)[C@@H](NC(=O)CNC(=O)[C@H](CCC(N)=O)NC(=O)[C@H](CO)NC(=O)[C@H](CC(C)C)NC(=O)CNC(=O)[C@H](CCCCN)NC(=O)[C@H](CCCCN)NC(=O)[C@H](CCC(N)=O)NC(=O)[C@H](C)NC(=O)CNC(=O)[C@H](CCC(=O)O)NC(=O)[C@H](Cc2ccc(O)cc2)NC(=O)[C@H](CCCCN)NC(=O)[C@H](CCCNC(=N)N)NC(=O)[C@H](C)NC(=O)[C@H](CCC(N)=O)NC(=O)[C@@H]2CCCN2C(=O)[C@H](Cc2c[nH]cn2)NC(=O)[C@H](CCC(=O)O)NC(=O)[C@H](CCC(N)=O)NC(=O)COCCOCCNC(=O)COCCOCCNC(=O)CC[C@H](NC(=O)CC[C@H](NC(=O)CCCCCCCCCCCCCCCCC(=O)O)C(=O)O)C(=O)O)CSSC[C@@H](C(=O)O)NC(=O)CNC(=O)[C@H](CC(C)C)NC(=O)CNC(=O)[C@H](CO)NC(=O)[C@H](CC(C)C)NC(=O)[C@H](CO)NC(=O)CNC1=O [compound 1396] ({C18 diacid-γGlu-γGlu-AEEA-AEEA}-QEHPQARKYEGAQKKGLSQGCFGLPLDRIGSLSGLGC-OH; disulfide 21-37) | 43.1% |
| CC[C@H](C)[C@@H]1NC(=O)[C@H](CCCNC(=N)N)NC(=O)[C@H](CC(=O)O)NC(=O)[C@H](CC(C)C)NC(=O)[C@@H]2CCCN2C(=O)[C@H](CC(C)C)NC(=O)CNC(=O)[C@H](Cc2ccccc2)NC(=O)[C@@H](NC(=O)CNC(=O)[C@H](CCC(N)=O)NC(=O)[C@H](CO)NC(=O)[C@H](CO)NC(=O)CNC(=O)[C@H](CCCCN)NC(=O)[C@H](CCCCN)NC(=O)[C@H](CCC(N)=O)NC(=O)[C@H](C)NC(=O)CNC(=O)[C@H](CCCCN)NC(=O)[C@H](Cc2ccc(O)cc2)NC(=O)[C@H](Cc2c[nH]cn2)NC(=O)[C@H](CCCNC(=N)N)NC(=O)[C@H](C)NC(=O)[C@H](CCC(N)=O)NC(=O)[C@@H]2CCCN2C(=O)[C@H](Cc2c[nH]cn2)NC(=O)[C@H](CCC(=O)O)NC(=O)[C@H](CCC(N)=O)NC(=O)COCCOCCNC(=O)COCCOCCNC(=O)CC[C@H](NC(=O)CC[C@H](NC(=O)CC[C@H](NC(=O)CC[C@H](NC(=O)CCCCCCCCCCCCCCCCC(=O)O)C(=O)O)C(=O)O)C(=O)O)C(=O)O)CSSC[C@@H](C(=O)O)NC(=O)CNC(=O)[C@H](CC(C)C)NC(=O)CNC(=O)[C@H](CO)NC(=O)[C@H](CC(C)C)NC(=O)[C@H](CO)NC(=O)CNC1=O [compound 1398] ({C18 diacid-γGlu-γGlu-γGlu-γGlu-AEEA-AEEA}-QEHPQARHYKGAQKKGSSQGCFGLPLDRIGSLSGLGC-OH; disulfide 21-37) | 55.6% |
| CC[C@H](C)[C@@H]1NC(=O)[C@H](CCCNC(=N)N)NC(=O)[C@H](CC(=O)O)NC(=O)[C@H](CC(C)C)NC(=O)[C@@H]2CCCN2C(=O)[C@H](CC(C)C)NC(=O)CNC(=O)[C@H](Cc2ccccc2)NC(=O)[C@@H](NC(=O)CNC(=O)[C@H](CCC(N)=O)NC(=O)[C@H](CO)NC(=O)[C@H](CO)NC(=O)CNC(=O)[C@H](CCCCN)NC(=O)[C@H](CCCCN)NC(=O)[C@H](CCC(N)=O)NC(=O)[C@H](C)NC(=O)CNC(=O)[C@H](CCCCN)NC(=O)[C@H](Cc2ccc(O)cc2)NC(=O)[C@H](Cc2c[nH]cn2)NC(=O)[C@H](CCCNC(=N)N)NC(=O)[C@H](C)NC(=O)[C@H](CCC(N)=O)NC(=O)[C@@H]2CCCN2C(=O)[C@H](Cc2c[nH]cn2)NC(=O)[C@H](CCC(=O)O)NC(=O)[C@H](CCC(N)=O)NC(=O)COCCOCCNC(=O)COCCOCCNC(=O)CC[C@H](NC(=O)CC[C@H](NC(=O)CC[C@H](NC(=O)CC[C@H](NC(=O)CCCCCCCCCCCCCCCCCCC(=O)O)C(=O)O)C(=O)O)C(=O)O)C(=O)O)CSSC[C@@H](C(=O)O)NC(=O)CNC(=O)[C@H](CC(C)C)NC(=O)CNC(=O)[C@H](CO)NC(=O)[C@H](CC(C)C)NC(=O)[C@H](CO)NC(=O)CNC1=O [compound 1399] ({C20 diacid-γGlu-γGlu-γGlu-γGlu-AEEA-AEEA}-QEHPQARHYKGAQKKGSSQGCFGLPLDRIGSLSGLGC-OH; disulfide 21-37) | 137.0% |
